# Tests used:
# JAK2 = molecular target: T1, JAK2 (Homo sapiens, UniProt O60674); experiment: Kinobeads assay with antibody detection, JAK2; format: binding; conditions: mixed Molt4/Ramos lysate, read-out: JAK2 inhibition value (IC50)
# T1 construct: endogenous in cells; host or cells: mixed Molt4/Ramos cell lysate (1:2)
# Description: The compounds of the present invention as described in the previous examples were tested in a Kinobeads™ assay as described for ZAP-70 (WO-A 2007/137867). Briefly, test compounds (at various concentrations) and the affinity matrix with the immobilized aminopyrido-pyrimidine ligand 24 were added to cell lysate aliquots and allowed to bind to the proteins in the lysate sample. After the incubation time the beads with captured proteins were separated from the lysate. Bound proteins were then eluted and the presence of JAK1; JAK2, JAK3 and TYK2 was detected and quantified using specific antibodies in a dot blot procedure and the Odyssey infrared detection system. Dose response curves for individual kinases were generated and IC50 values calculated. Kinobeads™ assays for ZAP-70 (WO-A 2007/137867) and for kinase selectivity profiling (WO-A 2006/134056) have been previously described.
# 5×DP buffer: 250 mM Tris-HCl pH 7.4, 25% Glycerol, 7.5 mM MgCl2, 750 mM NaCl, 5 mM Na3VO4; filter the 5×DP buffer through a 0.22 μm filter and store in aliquot at −80° C. The 5×DP buffer is diluted with H2O to 1×DP buffer containing 1 mM DTT and 25 mM NaF.
# Stock solutions of test compounds were prepared in DMSO. In a 96 well plate 30 μL solution of diluted test compounds at 5 mM in DMSO were prepared. Starting with this solution a 1:3 dilution series (9 steps) was prepared. For control experiments (no test compound) a buffer containing 2% DMSO was used.
# Molt4 cells (ATCC catalogue number CRL-1582) and Ramos cells (ATCC catalogue number CRL-1596) were grown in 1 L Spinner flasks (Integra Biosciences, #182101) in suspension in RPMI 1640 medium (Invitrogen, #21875-034) supplemented with 10% Fetal Bovine Serum (Invitrogen) at a density between 0.15×10^6 and 1.2×10^6 cells/mL. Cells were harvested by centrifugation, washed once with 1×PBS buffer (Invitrogen, #14190-094) and cell pellets were frozen in liquid nitrogen and subsequently stored at −80° C. Cells were homogenized in a Potter S homogenizer in lysis buffer: 50 mM Tris-HCl, 0.8% NP40, 5% glycerol, 150 mM NaCl, 1.5 mM MgCl2, 25 mM NaF, 1 mM sodium vanadate, 1 mM DTT, pH 7.5. One complete EDTA-free tablet (protease inhibitor cocktail, Roche Diagnostics, 1873580) per 25 mL buffer was added. The material was dounced 10 times using a mechanized POTTER S, transferred to 50 mL falcon tubes, incubated for 30 minutes on ice and spun down for 10 minutes at 20,000 g at 4° C. (10,000 rpm in Sorvall SLA600, precooled). The supernatant was transferred to an ultracentrifuge (UZ)-polycarbonate tube (Beckmann, 355654) and spun for 1 hour at 100.000 g at 4° C. (33.500 rpm in Ti50.2, precooled). The supernatant was transferred again to a fresh 50 mL falcon tube, the protein concentration was determined by a Bradford assay (BioRad) and samples containing 50 mg of protein per aliquot were prepared. The samples were immediately used for experiments or frozen in liquid nitrogen and stored frozen at −80° C.
# Cell lysate (approximately 50 mg protein per plate) was thawed in a water bath at room temperature and then stored on ice. To the thawed cell lysate 1×DP 0.8% NP40 buffer containing protease inhibitors (1 tablet for 25 mL buffer; EDTA-free protease inhibitor cocktail; Roche. Diagnostics 1873580) was added in order to reach a final protein concentration of 10 mg/mL total protein. The diluted cell lysate was stored on ice. Mixed Molt4Ramos lysate was prepared by combining one volume of Molt4 lysate and two volumes of Ramos lysate (ratio 1:2).
# Plates were sealed and incubated for 3 hours in a cold room on a plate shaker (Heidolph tiramax 1000) at 750 rpm. Afterwards the plate was washed 3 times with 230 μL washing buffer (1×DP 0.4% NP40). The filter plate was placed on top of a collection plate (Greiner bio-one, PP-microplate 96 well V-shape, 65120) and the beads were then eluted with 20 μL of sample buffer (100 mM Tris, pH 7.4, 4% SDS, 0.00025% bromophenol blue, 20% glycerol, 50 mM DTT). […]
# BTK = molecular target: T2, BTK (Homo sapiens, UniProt Q06187); experiment: Kinobeads assay with quantitative mass spectrometry, BTK; format: binding; conditions: Jurkat/Ramos lysate, read-out: BTK inhibition value (IC50)
# T2 construct: purchased ProQinase GmbH, Freiburg, Germany
# Description: Selected compounds of the present invention as described in the previous examples were tested in a Kinobeads™ assay as described (WO-A 2006/134056; Bantscheff et al., 2007. Nature Bioteclmol. 25, 1035-1044).
# Compounds were incubated with cell lysate aliquots (1:1 mix of Jurkat and Ramos cell lysates) for 45 minutes at 4° C. and allowed to bind to the proteins in the lysate sample. Then the Kinobeads™ affinity matrix was added to capture proteins that were not interacting with the previously added compound. After this two hour incubation step at 4° C. beads were separated from the lysate and bead bound proteins were eluted in SDS sample buffer and subsequently separated by SDS-Polyacrylamide gel electrophoresis. The gel was stained with colloidal Coomassie and stained areas of each gel lane were cut out and subjected to in-gel proteolytic digestion with trypsin. Peptides originating from the different gel areas were labeled with isobaric tagging reagents (TMT reagents, Thermofisher) as shown in Table 7. The TMT reagents are a set of multiplexed, amine-specific, stable isotope reagents that can label peptides in up to six different biological samples enabling simultaneous identification and quantitation of peptides. The combined samples were fractionated using reversed-phase chromatography at pH 11 and fractions were subsequently analyzed with a nano-flow liquid chromatography system coupled online to a tandem mass spectrometer (LC-MSMS) experiment followed by reporter ion quantification in the MSMS spectra (Ross et al., 2004. Mol. Cell. Proteomics 3(12):1154-1169; Dayon et al., 2008. Anal. Chem. 80(8):2921-2931; Thompson et al., 2003. Anal. Chem. 75(8):1895-1904). Further experimental protocols can be found in WO2006/134056 and previous publications (Bantscheff et al., 2007. Nat. Biotechnol. 25, 1035-1044; Bantscheff et al., 2011. Nat. Biotechnol. 29(3):255-265).
# T1 sequence (O60674 whole entry): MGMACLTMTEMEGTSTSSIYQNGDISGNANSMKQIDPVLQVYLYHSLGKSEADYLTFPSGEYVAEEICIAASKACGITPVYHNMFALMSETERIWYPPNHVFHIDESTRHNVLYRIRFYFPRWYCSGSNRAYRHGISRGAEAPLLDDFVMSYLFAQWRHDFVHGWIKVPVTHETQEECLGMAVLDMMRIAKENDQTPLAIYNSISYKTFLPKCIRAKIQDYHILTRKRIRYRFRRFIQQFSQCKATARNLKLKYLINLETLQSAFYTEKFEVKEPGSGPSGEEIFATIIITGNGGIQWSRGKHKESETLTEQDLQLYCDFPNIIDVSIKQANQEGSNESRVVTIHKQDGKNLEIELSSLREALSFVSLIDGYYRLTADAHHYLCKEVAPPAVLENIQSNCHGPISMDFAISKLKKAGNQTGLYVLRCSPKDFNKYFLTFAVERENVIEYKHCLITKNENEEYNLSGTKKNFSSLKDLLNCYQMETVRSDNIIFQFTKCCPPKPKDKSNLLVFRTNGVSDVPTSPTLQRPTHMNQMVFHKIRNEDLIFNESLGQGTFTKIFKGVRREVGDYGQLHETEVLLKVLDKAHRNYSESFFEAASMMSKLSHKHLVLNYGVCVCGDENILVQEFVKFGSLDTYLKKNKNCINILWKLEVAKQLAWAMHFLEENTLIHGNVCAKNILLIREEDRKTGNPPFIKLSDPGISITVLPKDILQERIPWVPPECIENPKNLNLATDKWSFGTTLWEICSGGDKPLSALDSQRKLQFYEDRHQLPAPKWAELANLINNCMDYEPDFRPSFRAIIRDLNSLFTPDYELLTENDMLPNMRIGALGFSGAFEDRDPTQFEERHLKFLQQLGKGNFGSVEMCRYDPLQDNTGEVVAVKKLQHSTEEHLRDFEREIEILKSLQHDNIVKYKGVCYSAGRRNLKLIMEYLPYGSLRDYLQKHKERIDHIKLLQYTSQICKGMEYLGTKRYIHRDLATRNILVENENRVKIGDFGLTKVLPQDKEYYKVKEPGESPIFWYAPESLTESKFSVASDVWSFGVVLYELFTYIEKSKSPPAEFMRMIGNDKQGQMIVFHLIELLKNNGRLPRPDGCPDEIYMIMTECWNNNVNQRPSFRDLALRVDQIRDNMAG
# T2 sequence (Q06187 whole entry): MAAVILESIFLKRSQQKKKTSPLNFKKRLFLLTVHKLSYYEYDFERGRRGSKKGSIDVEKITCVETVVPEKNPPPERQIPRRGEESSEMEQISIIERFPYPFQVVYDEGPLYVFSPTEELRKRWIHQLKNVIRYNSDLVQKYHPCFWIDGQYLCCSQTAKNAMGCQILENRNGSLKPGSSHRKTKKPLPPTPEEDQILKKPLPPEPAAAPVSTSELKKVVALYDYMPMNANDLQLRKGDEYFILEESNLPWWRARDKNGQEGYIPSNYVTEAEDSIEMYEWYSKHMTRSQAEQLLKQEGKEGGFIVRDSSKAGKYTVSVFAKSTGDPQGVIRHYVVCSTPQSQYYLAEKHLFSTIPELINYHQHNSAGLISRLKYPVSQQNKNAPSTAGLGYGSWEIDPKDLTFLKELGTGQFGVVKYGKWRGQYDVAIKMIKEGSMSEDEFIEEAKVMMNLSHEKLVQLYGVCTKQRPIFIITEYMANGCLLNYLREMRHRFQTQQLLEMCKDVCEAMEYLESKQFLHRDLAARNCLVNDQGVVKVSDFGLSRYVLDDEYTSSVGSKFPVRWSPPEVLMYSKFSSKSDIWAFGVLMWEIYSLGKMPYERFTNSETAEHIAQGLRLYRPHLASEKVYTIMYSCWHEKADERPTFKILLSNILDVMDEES
Structure (SMILES),IC50 (JAK2) [µM],IC50 (BTK) [µM]
"C=CC(=O)Nc1cccc(Cn2ncc3cnc(Nc4cnn(C)c4)nc32)c1 [Example 1, N-(3-((6-((1-Methyl-1H-pyrazol-4-yl)amino)-1H-pyrazolo[3,4-d]pyrimidin-1-yl)methyl)phenyl)acrylamide]",> 10,0.012
"C=CC(=O)Nc1cc(Cn2ncc3cnc(Nc4cnn(C)c4)nc32)ccc1F [Example 2, N-(2-Fluoro-5-((6-((1-methyl-1H-pyrazol-4-yl)amino)-1H-pyrazolo[3,4-c]pyrimidin-1-yl)methyl)phenyl)acrylamide]",> 10,0.072
"C#CC(=O)Nc1cccc(Cn2ncc3cnc(Nc4cnn(C)c4)nc32)c1 [Example 3, N-(3-((6-((1-Methyl-1H-pyrazol-4-yl)amino)-1H-pyrazolo[3,4-d]pyrimidin-1-yl)methyl)phenyl)propiolamide]",> 10,0.012
"C=CS(=O)(=O)Nc1cccc(Cn2ncc3cnc(Nc4cnn(C)c4)nc32)c1 [Example 4, N-(3-((6-((1-Methyl-1H-pyrazol-4-yl)amino)-1H-pyrazolo[3,4-d]pyrimidin-1-yl)methyl)phenyl)ethenesulfonamide]",> 10,–
"C=C(C)C(=O)Nc1cccc(Cn2ncc3cnc(Nc4cnn(C)c4)nc32)c1 [Example 5, N-(3-((6-((1-Methyl-1H-pyrazol-4-yl)amino)-1H-pyrazolo[3,4-d]pyrimidin-1-yl)methyl)phenyl)methacrylamide]",> 10,–
"C=CS(=O)(=O)Nc1cccc(Cn2ccc3cnc(Nc4cnn(C)c4)nc32)c1 [Example 7, N-(3-((2-((1-Methyl-1H-pyrazol-4-yl)amino)-7H-pyrrolo[2,3-d]pyrimidin-7-yl)methyl)phenyl)ethenesulfonamide]",> 10,–
"CC(=O)Nc1cccc(Cn2ncc3cnc(Nc4cnn(C)c4)nc32)c1 [compound 2, N-(3-((6-((1-methyl-1H-pyrazol-4-yl)amino)-1H-pyrazolo[3,4-d]pyrimidin-1-yl)methyl)phenyl)acetamide, reference compound]",> 10,–

# — patent publication US20140323504A1, “Pyrazolo[4,3-c]Pyridine Derivatives As Kinase Inhibitors” (Cellzome Limited, priority 2011, published 2014)
